Reference: PMC9926630, “Simultaneous attenuation of hyperglycemic memory-induced retinal, pulmonary, and glomerular dysfunctions by proinsulin C-peptide in diabetes” (BMC Medicine, 2023)

Assays:
[1] = test system: insulin-supplemented diabetic (HGM) mice; test: Body weight, blood glucose, water and food consumption of HGM mice; assay type: in vivo, mouse; conditions: 4 weeks of treatment, insulin vs diabetic, K9-C-peptide/K8 on top of insulin, n = 6
Experimental: Six-week-old male C57BL/6 mice were obtained from DBL (EumSeong, Korea). […] Soo-Yul Kim (National Cancer Center, Goyang, Republic of Korea). Mice were maintained under pathogen-free conditions in a temperature-controlled room with a 12-h light/dark cycle. Diabetic mice were generated by single daily intraperitoneal injections of streptozotocin (50 mg/kg body weight; MilliporeSigma, Burlington, MA, USA) freshly prepared in 100 mM citrate buffer (pH 4.5) for 5 consecutive days, as previously described. The control group mice were injected with an equal volume of the citrate buffer. Mice with fasting blood glucose concentrations ≥ 19 mmol/L, polyuria, and glucosuria were considered diabetic. Mouse blood glucose levels and body weights were monitored weekly. […] One day after implantation of the osmotic pumps, human C-peptide was systemically supplemented by subcutaneous implantation of K9-C-peptide depots as previously described. […] The K9-C-peptide and K8 polypeptide were prepared by inverse transition cycling as previously described. Four weeks after the subcutaneous injections, sera and retinal, lung, and kidney tissues were obtained from the mice and analyzed. All animal experiments conformed to the Guide for the Care and Use of Laboratory Animals (National Institutes of Health; Bethesda, MD, USA) and were approved by the Institutional Animal Care and Use Ethics Committee of Kangwon National University (KW-201204–3).

[2] = Human C-peptide level in mouse serum (ELISA); assay type: in vivo; conditions: HGM mice (STZ diabetic, insulin by osmotic pump 4 weeks), 4 weeks after s.c. K9-C-peptide 100 mg/kg or K8 polypeptide 83 mg/kg, injected twice, mean ± SD, n = 6
Experimental: (§1) One day after implantation of the osmotic pumps, human C-peptide was systemically supplemented by subcutaneous implantation of K9-C-peptide depots as previously described. […] The K9-C-peptide and K8 polypeptide were prepared by inverse transition cycling as previously described. Four weeks after the subcutaneous injections, sera and retinal, lung, and kidney tissues were obtained from the mice and analyzed. All animal experiments conformed to the Guide for the Care and Use of Laboratory Animals (National Institutes of Health; Bethesda, MD, USA) and were approved by the Institutional Animal Care and Use Ethics Committee of Kangwon National University (KW-201204–3).

[3] = Human insulin level in mouse serum (ELISA); assay type: in vivo; conditions: HGM mice, insulin by osmotic pump 58.4 pmol/min/kg for 4 weeks, alone or with K8 polypeptide or K9-C-peptide, 10 weeks after streptozotocin, mean ± SD, n = 6
Experimental: as §1

[4] = test system: type 1 and type 2 diabetic mice; conditions: cited from earlier work
Description: The coincidence of diabetic complications, including DR, DPN, and DKD, has been reported in a number of clinical studies. Among the potential microvascular complications of diabetes, the coincidence of DR and DKD was reported to be high in epidemiological studies of both type 1 and type 2 diabetes. Co-occurrence of microvascular complications has also been observed in diabetic animal models including diabetic mice and rats. Moreover, increased mortality was reported in patients with both DR and systemic vascular diseases, including DKD [[ ...

[5] = cited from earlier work
Experimental: However, C-peptide is limited in clinical applications by its short circulating half-life (approximately 30 min) and costly chemical synthesis. Recently, we prepared K9-C-peptide, a recombinant human C-peptide conjugated to ELP, to facilitate long-term systemic delivery of C-peptide. ELPs, derived from human elasti ...

[6] = test system: human retinal endothelial cells (HRECs); test: Intracellular ROS levels in endothelial cells under HGM conditions; assay type: cell-based; conditions: 30 mM glucose 3 days then 5.5 mM 3 days; 1 nM K9-C-peptide or K8 polypeptide, 0.5 µM Trolox, 50 µM cystamine, 1 nM human C-peptide; CellROX green and H2DCFDA, n = 4
Experimental: (§2) HRECs were purchased from the Applied Cell Biology Research Institute (Cell Systems, Kirkland, WA) and grown on 2% gelatin-coated plates in M199 medium supplemented with 20% FBS, 3 ng/mL basic fibroblast growth factor, 100 U/mL penicillin, and […] streptomycin in a humidified 5% CO2 incubator. Cells were authenticated by short tandem repeat profiling, and subconfluent cells after 7–9 passages were used in experiments. For the experiments, endothelial cells were incubated for 12 h in a low-serum medium supplemented with 2% fetal bovine serum, 0.1 ng/mL basic fibroblast growth factor, and antibiotics. The cells were then treated with 5.5 mM D-glucose for 6 days (normal glucose), 30 mM glucose for 6 days (high glucose), or 30 mM glucose for 3 days followed by 5.5 mM glucose for 3 days (HGM).
Intracellular ROS levels were measured in HRECs using CellROX™ green reagent and 2′,7′-dichlorodihydrofluorescein diacetate (Thermo Fisher Scientific, Waltham, MA, USA) as previously described. Labeled cells on coverslips were mounted in a perfusion chamber and analyzed by confocal microscopy (K1-Fluo). ROS levels were determined at the single-cell level for 30 randomly selected cells in three microscopic fields per experiment (n = 4).

TGase = test: In situ TGase activity in endothelial cells under HGM conditions; assay type: cell-based; conditions: 30 mM glucose 3 days then 5.5 mM 3 days, 1 nM K9-C-peptide or K8 polypeptide, 0.5 µM Trolox, 50 µM cystamine, 1 nM human C-peptide, confocal, n = 4
Experimental: as §2
In situ TGase transamidating activity was measured by confocal microscopic assay as previously described. Briefly, HRECs were treated with 1 mmol/L 5-(biotinamido)pentylamine for 1 h and fixed with 3.7% formaldehyde for 30 min. The cells were then permeabilized with 0.2% Triton X-100 in PBS for 30 min and stained with FITC-conjugated streptavidin (1:200; MilliporeSigma, Burlington, MA, USA) for 1 h. The fluorescence intensities of single stained cells were determined by confocal microscopy (K1-Fluo) for 30 randomly selected cells in three microscopic fields per experiment (n = 4).

With “insulin: human recombinant insulin delivered by subcutaneous osmotic pump (HGM group)” the “Effect on blood glucose level (hyperglycemia)” value [1] was “normalized”, the “Effect on body weight” value [1] was “normalized” and the “Effect on water and food consumption” value [1] was “normalized”. For the same compound, the “Serum C-peptide” value [2] was “not detectable” and the Serum human insulin [3] was “in the physiological range”.
For `CN(C)c1ccc(O)c2c1C[C@H]1C[C@H]3[C@H](N(C)C)C(O)=C(C(N)=O)C(=O)[C@@]3(O)C(O)=C1C2=O` [minocycline], the “Effect on DR and DKD” value ([4]; DR in type 1 and DKD in type 2 diabetic mice, respectively) is listed as “partially ameliorated” and the “Effect on DPN” value ([4]; type 1 and type 2 diabetic mice (either animal model)) is listed as “failed to improve”.
In the case of `CC(C)C[C@H](NC(=O)[C@H](C)NC(=O)[C@H](CC(C)C)NC(=O)[C@@H]1CCCN1C(=O)[C@H](CCC(N)=O)NC(=O)[C@H](CC(C)C)NC(=O)[C@H](CO)NC(=O)CNC(=O)[C@H](C)NC(=O)CNC(=O)[C@@H]1CCCN1C(=O)CNC(=O)CNC(=O)CNC(=O)[C@H](CC(C)C)NC(=O)[C@H](CCC(=O)O)NC(=O)[C@@H](NC(=O)[C@H](CCC(N)=O)NC(=O)CNC(=O)[C@@H](NC(=O)[C@H](CCC(N)=O)NC(=O)[C@H](CC(C)C)NC(=O)[C@H](CC(=O)O)NC(=O)[C@H](CCC(=O)O)NC(=O)[C@H](C)NC(=O)[C@@H](N)CCC(=O)O)C(C)C)C(C)C)C(=O)N[C@@H](CCC(=O)O)C(=O)NCC(=O)N[C@@H](CO)C(=O)N[C@@H](CC(C)C)C(=O)N[C@@H](CCC(N)=O)C(=O)O` [human C-peptide], the Circulating half-life [5] is given as “approximately 30 min”.
With `NCCSSCCN` [cystamine] the “HGM-induced persistent ROS generation in HRECs” value [6] was “inhibited” and the “HGM-induced persistent TGase activation in HRECs” value (TGase) was “inhibited”.
For `Cc1c(C)c2c(c(C)c1O)CCC(C)(C(=O)O)O2` (stereo not drawn) [Trolox], the “HGM-induced persistent ROS generation in HRECs” value [6] was “inhibited” and the “HGM-induced persistent TGase activation in HRECs” value (TGase) was “inhibited”.
